Data published in patent US9168259B2 (GRÜNENTHAL GMBH, priority 2010, dated 2015).

Biological target: T1, KCNQ2/3 channels (Homo sapiens, UniProt O43525+O43526)
T1 construct: expressed in transfected cells
Experiment: Fluorescence assay using a voltage sensitive dye (fluorimetry)
Type: cell-based
Conditions: CHO-K1 cells expressing KCNQ2/3; for Emax: CHO-K1, plateau effect relative to saturated retigabine (50 μM) = 100%, negative values = antagonistic, read-out: Fluorimetry % efficacy (retigabine = 100%); for EC50: IC50 where % efficacy is negative, read-out: Fluorimetry EC50/IC50
From the text: Method I. Fluorescence Assay Using a Voltage Sensitive Dye (Fluorimetry)
These voltage-sensitive dyes are fluorescent dyes and, therefore, are forming the link between cell potential influenced by KCNQ modulation and fluorescence intensity. A KCNQ agonist leads to an opening of the channel, potassium and dye efflux, a following hyperpolarization and a reduction of the inner fluorescence intensity in a kinetic protocol. If applying an ion jump by KCl depolarization, KCNQ agonists increase the ΔF/F value. An antagonist performs vice versa, respectively.
Therefore, ‘fluorimetry EC50’ is a measure for the compound potency. The compound efficacy is mirrored by ‘fluorimetry % efficacy’ (‘% Efficacy’) and refers to the maximum response achievable by the test compound, i.e. the plateau effect. This drug's plateau effect is related to the plateau effect, which can be achieved by applying a saturated concentration of a reference compound, e.g. Retigabine (50 μM), in independent wells of the same experimental plate or series.
[…] CHO-K1 cells expressing KCNQ2/3 channels are cultivated adherently at 37° C., 5% CO2 and 95% humidity in cell culture bottles (e.g. 80 cm^2 TC flasks, Nunc) with DMEM-high glucose (Sigma Aldrich, D7777) including 10% FCS (PAN Biotech, e.g. 3302-P270521) or alternatively MEM Alpha Medium (1×, liquid, Invitrogen, #22571), 10% fetal calf serum (FCS) (Invitrogen, #10270-106, heat-inactivated) and the necessary selection antibiotics.
The cell number is determined using a CASY™ cell counter (TCC, Schärfe System). Depending on the optimal density for each individual cell line, 20,000-30,000 cells/well/100 μl are seeded onto 96-well Corning™ CellBIND™ assay plates (Flat Clear Bottom Black Polystyrene Microplates, #3340). Freshly seeded cells are then left to settle for one hour at room temperature, followed by incubation for 24 hours at 37° C., 5% CO2 and 95% humidity.
The voltage-sensitive fluorescent dye from the Membrane Potential Assay Kit (Red™ Bulk format part R8123 for FLIPR, MDS Analytical Technologies™) is prepared by dissolving the contents of one vessel Membrane Potential Assay Kit Red Component A in 200 ml of extracellular buffer (ES buffer, 120 mM NaCl, 1 mM KCl, 10 mM HEPES, 2 mM CaCl2, 2 mM MgCl2, 10 mM glucose; pH 7.4). After removal of the nutrient medium, the cells are washed once with 200 μl of ES buffer, then loaded for 45 min at room temperature in 100 μl of dye solution in the dark.
Fluorescence measurements are carried out in a BMG Labtech FLUOstar™, BMG Labtech NOVOstar™ or BMG Labtech POLARstar™ instrument (525 nm excitation, 560 nm emission, Bottom Read mode). After incubation with the dye, 50 μl of the test substances in the desired concentrations, or 50 μl of ES buffer for control purposes, are applied to the wells of the assay plate and incubated for 30 min at room temperature while being shielded from light. The fluorescence intensity of the dye is then measured for 5 min and the fluorescence value F1 of each well is thus determined at a given, constant time. 15 μl of a KCl solution are then added to each well (final concentration of potassium ions 92 mM). The change in fluorescence intensity is subsequently monitored until all the relevant values have been obtained (mainly 5-30 min). At a given time post KCl application, a fluorescence value F2 is determined, in this case at the time of the fluorescence peak.
For calculation, the fluorescence intensity F2 is corrected for the fluorescence intensity F1, and the activity (ΔF/F) of the target compound on the potassium channel is determined as follows:
In order to determine whether a substance has agonistic activity,
[formula] can be related to
[formula] of control wells.
[formula] is determined by adding to the well only the buffer solution instead of the test substance, determining the value F1K of the fluorescence intensity, adding the potassium ions as described above, and measuring a value F2K of the fluorescence intensity.

T1 sequence (O43526 whole entry): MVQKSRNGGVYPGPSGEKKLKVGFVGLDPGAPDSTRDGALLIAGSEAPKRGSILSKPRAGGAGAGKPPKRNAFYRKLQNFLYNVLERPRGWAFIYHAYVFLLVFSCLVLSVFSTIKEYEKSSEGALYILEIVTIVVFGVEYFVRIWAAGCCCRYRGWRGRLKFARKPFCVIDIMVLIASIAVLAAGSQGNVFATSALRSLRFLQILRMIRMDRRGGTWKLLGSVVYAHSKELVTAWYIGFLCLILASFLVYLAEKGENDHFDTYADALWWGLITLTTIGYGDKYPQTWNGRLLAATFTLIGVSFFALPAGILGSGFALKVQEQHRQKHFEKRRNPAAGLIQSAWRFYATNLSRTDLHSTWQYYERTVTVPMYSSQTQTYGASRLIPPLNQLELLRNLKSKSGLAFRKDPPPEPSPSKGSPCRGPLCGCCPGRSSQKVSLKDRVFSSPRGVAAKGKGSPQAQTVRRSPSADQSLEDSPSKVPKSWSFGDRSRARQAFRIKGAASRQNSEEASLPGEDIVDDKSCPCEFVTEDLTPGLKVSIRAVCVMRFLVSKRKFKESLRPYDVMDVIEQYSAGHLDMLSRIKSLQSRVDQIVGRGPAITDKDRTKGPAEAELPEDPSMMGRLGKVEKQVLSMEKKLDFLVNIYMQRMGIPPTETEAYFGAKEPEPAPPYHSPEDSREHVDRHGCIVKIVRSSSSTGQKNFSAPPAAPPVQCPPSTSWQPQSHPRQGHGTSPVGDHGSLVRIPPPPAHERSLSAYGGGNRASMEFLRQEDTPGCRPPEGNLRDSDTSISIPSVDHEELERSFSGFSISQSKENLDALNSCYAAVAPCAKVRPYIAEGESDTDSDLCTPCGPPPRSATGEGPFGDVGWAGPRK
T1 sequence (O43525 whole entry): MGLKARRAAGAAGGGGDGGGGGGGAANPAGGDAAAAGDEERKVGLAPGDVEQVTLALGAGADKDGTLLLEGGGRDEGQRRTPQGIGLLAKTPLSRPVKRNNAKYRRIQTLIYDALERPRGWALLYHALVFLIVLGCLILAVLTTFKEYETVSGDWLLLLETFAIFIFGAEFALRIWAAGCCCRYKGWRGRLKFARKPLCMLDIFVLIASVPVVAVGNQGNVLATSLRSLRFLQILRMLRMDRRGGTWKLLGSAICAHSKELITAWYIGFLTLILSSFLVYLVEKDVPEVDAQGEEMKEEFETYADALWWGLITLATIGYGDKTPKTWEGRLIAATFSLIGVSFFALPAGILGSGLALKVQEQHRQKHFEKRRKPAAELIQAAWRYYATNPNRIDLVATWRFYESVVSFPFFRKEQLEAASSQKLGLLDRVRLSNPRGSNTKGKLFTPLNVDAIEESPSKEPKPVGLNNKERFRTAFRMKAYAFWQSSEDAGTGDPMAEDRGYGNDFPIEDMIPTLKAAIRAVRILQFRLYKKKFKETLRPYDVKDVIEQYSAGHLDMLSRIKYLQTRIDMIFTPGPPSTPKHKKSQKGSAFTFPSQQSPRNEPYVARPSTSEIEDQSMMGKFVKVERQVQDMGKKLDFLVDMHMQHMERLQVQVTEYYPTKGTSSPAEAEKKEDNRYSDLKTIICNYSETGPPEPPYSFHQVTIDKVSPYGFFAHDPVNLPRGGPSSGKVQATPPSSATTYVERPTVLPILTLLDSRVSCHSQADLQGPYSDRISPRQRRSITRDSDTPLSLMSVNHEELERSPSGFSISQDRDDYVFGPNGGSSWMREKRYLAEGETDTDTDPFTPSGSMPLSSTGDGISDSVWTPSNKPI

SMILES | Emax [%] | EC50 [nM]
COCCOc1nc(N2CCOCC2)cc(C)c1C(=O)NCCCC(C)(C)C [Example 349, N-(4,4-Dimethyl-pentyl)-2-(2-methoxy-ethoxy)-4-methyl-6-morpholin-4-yl-pyridine-3-carboxylic acid amide] | 216 | 284
Cc1cc(N2CCOCC2)nc(C2CC2)c1C(=O)NCCCC(C)(C)C [Example 328, 2-Cyclopropyl-N-(4,4-dimethyl-pentyl)-4-methyl-6-morpholin-4-yl-pyridine-3-carboxylic acid amide] | 230 | 44
CCOc1nc(N2CCOCC2)cc(C)c1C(=O)NCc1cc(F)cc(F)c1 [Example 90, N-[(3,5-Difluoro-phenyl)-methyl]-2-ethoxy-4-methyl-6-morpholin-4-yl-pyridine-3-carboxylic acid amide] | 134 | 122
CCSc1nc(N(C)Cc2cccnc2)cc(C)c1C(=O)NCc1cccc(F)c1 [Example 119, 2-Ethylsulfanyl-N-[(3-fluorophenyl)-methyl]-4-methyl-6-[methyl-(pyridin-3-yl-methyl)-amino]-pyridine-3-carboxylic acid amide] | 91 | 2420
CCSc1nc(N2CCOCC2)cc(C)c1C(=O)NCc1cccc(F)n1 [Example 45, 2-Ethylsulfanyl-N-[(6-fluoro-pyridin-2-yl)-methyl]-4-methyl-6-morpholin-4-yl-pyridine-3-carboxylic acid amide] | 151 | 3140
CCSc1nc(N2CCOCC2)cc(C)c1C(=O)NCc1ccc(C)cc1 [Example 161, 2-Ethylsulfanyl-4-methyl-6-morpholin-4-yl-N-(p-tolyl-methyl)-pyridine-3-carboxylic acid amide] | 143 | 366
CCSc1nc(N2CCOCC2)cc(C)c1C(=O)NCCCCC#N [Example 163, N-(4-Cyano-butyl)-2-ethylsulfanyl-4-methyl-6-morpholin-4-yl-pyridine-3-carboxylic acid amide] | 73 | 
CCSc1nc(N2CCOCC2)cc(C)c1C(=O)NCCCOC [Example 78, 2-Ethylsulfanyl-N-(3-methoxy-propyl)-4-methyl-6-morpholin-4-yl-pyridine-3-carboxylic acid amide] | 31 | 
CCSc1nc(N2CCOCC2)cc(C)c1C(=O)NCC(O)CC(C)C (stereo not drawn) [Example 228, 2-Ethylsulfanyl-N-(2-hydroxy-4-methyl-pentyl)-4-methyl-6-morpholin-4-yl-pyridine-3-carboxylic acid amide] | 180 | 2450
CCSc1nc(N2CC(OC)C2)cc(C)c1C(=O)NCc1cccc(F)c1 [Example 6, 2-Ethylsulfanyl-N-[(3-fluorophenyl)-methyl]-6-(3-methoxy-azetidin-1-yl)-4-methyl-pyridine-3-carboxylic acid amide] | 140 | 3870
CCC(C)c1nc(N2CCOC[C@H]2C)cc(C)c1C(=O)NCCCC(C)(C)C (stereo partly drawn) [Example 195, N-(4,4-Dimethyl-pentyl)-4-methyl-6-[(3R)-3-methyl-morpholin-4-yl]-2-(1-methyl-propyl)-pyridine-3-carboxylic acid amide] | 242 | 13
Cc1cc(N2CCOCC2)nc(C(C)C)c1C(=O)NCc1cccc(F)c1 [Example 23, N-[(3-Fluorophenyl)-methyl]-2-isopropyl-4-methyl-6-morpholin-4-yl-pyridine-3-carboxylic acid amide] | 182 | 113
CCSc1nc(N(C)C(C)=O)cc(C)c1C(=O)NCc1cccc(F)c1 [Example 123, 6-(Acetyl-methyl-amino)-2-ethylsulfanyl-N-[(3-fluorophenyl)-methyl]-4-methyl-pyridine-3-carboxylic acid amide] | 67 | 
CCSc1nc(N2CCO[C@@H](C)C2)cc(C)c1C(=O)NCCCC(C)(C)C [Example 274, N-(4,4-Dimethyl-pentyl)-2-ethylsulfanyl-4-methyl-6-[(2S)-2-methyl-morpholin-4-yl]-pyridine-3-carboxylic acid amide] | 217 | 234
CCSc1nc(N2CCOCC2)cc(C)c1C(=O)NCCCC#N [Example 160, N-(3-Cyano-propyl)-2-ethylsulfanyl-4-methyl-6-morpholin-4-yl-pyridine-3-carboxylic acid amide] | 70 | 
CCSc1nc(N2CCOC[C@H]2C)cc(C)c1C(=O)NCc1ccc(F)cc1 [Example 177, 2-Ethylsulfanyl-N-[(4-fluorophenyl)-methyl]-4-methyl-6-[(3R)-3-methyl-morpholin-4-yl]-pyridine-3-carboxylic acid amide] | 174 | 97
CCSc1nc(NC)cc(C)c1C(=O)NCc1cccc(F)c1 [Example 34, 2-Ethylsulfanyl-N-[(3-fluorophenyl)-methyl]-4-methyl-6-methylamino-pyridine-3-carboxylic acid amide] | 37 | 1830
CCSc1nc(N2CCOCC2)cc(C)c1C(=O)NCCCC(C)(F)F [Example 308, N-(4,4-Difluoro-pentyl)-2-ethylsulfanyl-4-methyl-6-morpholin-4-yl-pyridine-3-carboxylic acid amide] | 249 | 397
CCSc1nc(N2CCOCC2)cc(C)c1C(=O)NCc1cccc(COC)c1 [Example 131, 2-Ethylsulfanyl-N-[[3-(methoxymethyl)-phenyl]-methyl]-4-methyl-6-morpholin-4-yl-pyridine-3-carboxylic acid amide] | 137 | 1250
CCC(C)c1nc(N2CCOCC2)cc(C)c1C(=O)NCc1ccc(Cl)cc1 (stereo not drawn) [Example 347, N-[(4-Chlorophenyl)-methyl]-4-methyl-2-(1-methyl-propyl)-6-morpholin-4-yl-pyridine-3-carboxylic acid amide] | 156 | 41
CCSc1nc(N2CCOCC2CCOC)cc(C)c1C(=O)NCc1cccc(F)c1 (stereo not drawn) [Example 340, 2-Ethylsulfanyl-N-[(3-fluorophenyl)-methyl]-6-[3-(2-methoxy-ethyl)-morpholin-4-yl]-4-methyl-pyridine-3-carboxylic acid amide] | 152 | 274
Cc1cc(N2CCOCC2)nc(C(C)C)c1C(=O)NCc1ccc(F)c(F)c1 [Example 310, N-[(3,4-Difluoro-phenyl)-methyl]-2-isopropyl-4-methyl-6-morpholin-4-yl-pyridine-3-carboxylic acid amide] | 174 | 43
CCSc1nc(N2CCOCC2)cc(C)c1C(=O)NCc1ccc(OC(F)F)cc1 [Example 288, N-[[4-(Difluoro-methoxy)-phenyl]-methyl]-2-ethylsulfanyl-4-methyl-6-morpholin-4-yl-pyridine-3-carboxylic acid amide] | 138 | 435
COc1nc(N2CCOC[C@H]2C)cc(C)c1C(=O)NCc1ccc(C(F)(F)F)cc1 [Example 238, 2-Methoxy-4-methyl-6-[(3R)-3-methyl-morpholin-4-yl]-N-[[4-(trifluoromethyl)-phenyl]-methyl]pyridine-3-carboxylic acid amide] | 164 | 102
CCSc1nc(N2CCOCC2)cc(C)c1C(=O)NCc1ccc(F)c(CO)c1 [Example 353, 2-Ethylsulfanyl-N-[[4-fluoro-3-(hydroxymethyl)-phenyl]-methyl]-4-methyl-6-morpholin-4-yl-pyridine-3-carboxylic acid amide] | 46 | 
